What was measured:
[1] = test system: TNF-α production following LPS-stimulation of human PBMC and human whole blood; assay: in vitro pharmacological activity profile, comparison with thalidomide (cytokine production); format: cell-based
Procedure: The pharmacological properties of 3-(3,4-dimethoxy-phenyl)-3-(1-oxo-1,3-dihydro-isoindol-2-yl)-propionamide, including activity comparisons with thalidomide, are characterized in in vitro studies. Studies examine the effects of 3-(3,4-dimethoxy-phenyl)-3-(1-oxo-1,3-dihydro-isoindol-2-yl)-propionamide on the production of various cytokines. In addition, a safety pharmacology study of 3-(3,4-dimethoxy-phenyl)-3-(1-oxo-1,3-dihydro-isoindol-2-yl)-propionamide is conducted in dogs and the effects of the compound on ECG parameters are examined further as part of three repeat-dose toxicity studies in primates.
Inhibition of TNF-α production following LPS-stimulation of human PBMC and human whole blood by 3-(3,4-dimethoxy-phenyl)-3-(1-oxo-1,3-dihydro-isoindol-2-yl)-propionamide is investigated in vitro (Muller et al., Bioorg. Med. Chem. Lett. 9:1625-1630, 1999). The IC50's of 3-(3,4-dimethoxy-phenyl)-3-(1-oxo-1,3-dihydro-isoindol-2-yl)-propionamide for inhibiting production of TNF-α following LPS-stimulation of PBMC and human whole blood is measured.
The pharmacological effects of 3-(3,4-dimethoxy-phenyl)-3-(1-oxo-1,3-dihydro-isoindol-2-yl)-propionamide derive from its action as an inhibitor of cellular response to receptor-initiated trophic signals (e.g., IGF-1, VEGF, cyclooxygenase-2), and other activities.

[2] = cardiovascular and respiratory function in anesthetized dogs; format: in vivo; conditions: anesthetized Beagle dogs; 400, 800 and 1,200 mg/kg/day ascending doses, infusion through the jugular vein
Procedure: The effects of 3-(3,4-dimethoxy-phenyl)-3-(1-oxo-1,3-dihydro-isoindol-2-yl)-propionamide on cardiovascular and respiratory function are investigated in anesthetized dogs. Two groups of Beagle dogs (2/sex/group) are used. One group receives three doses of vehicle only and the other receives three ascending doses of 3-(3,4-dimethoxy-phenyl)-3-(1-oxo-1,3-dihydro-isoindol-2-yl)-propionamide (400, 800, and 1,200 mg/kg/day). In all cases, doses of 3-(3,4-dimethoxy-phenyl)-3-(1-oxo-1,3-dihydro-isoindol-2-yl)-propionamide or vehicle are successively administered via infusion through the jugular vein separated by intervals of at least 30 minutes.

CBP+/− mutant mice = conditions: cited from earlier work
[3] = test system: rat mesencephalonic neurons; conditions: in the presence of the adenylate cyclase activator forskolin; cited from earlier work
patients with PD = conditions: cited from earlier work

For `COc1ccc(C(CC(N)=O)N2Cc3ccccc3C2=O)cc1OC` (stereo not drawn) [3-(3,4-dimethoxy-phenyl)-3-(1-oxo-1,3-dihydro-isoindol-2-yl)-propionamide], the “effect on generation of inflammatory cytokines” value ([1]; in vitro) was “suppresses the generation of inflammatory cytokines”, the “potency relative to thalidomide (times more potent)” value ([1]; in vitro studies, pharmacological activity profile similar to thalidomide) was 5 to 50 times and the “cardiovascular and respiratory changes compared to the vehicle control group” value [2] was “minimal at all doses”.

For `COc1ccc([C@H]2CNC(=O)[C@H](Cc3cccc(C)c3)C2)cc1OC1CCCC1` [HT0712], the long-term memory defects (CBP+/− mutant mice) is listed as “abolished the long-term memory defects”.

In the case of `COCCOc1cc(OCCOC)cc(-c2nc(C)cc3cc(OC)c(OC)cc23)c1` [SDZ-MNS 949], the uptake of dopamine [3] is listed as “stimulate uptake of dopamine”.

For `COc1ccc(C2CNC(=O)C2)cc1OC1CCCC1` (stereo not drawn) [Rolipram], the dose-limiting side effect (patients with PD; Phase II trials of PD) is listed as “nausea”, the “deterioration of the therapeutic action of dopamine against Lisuride” value (patients with PD; double-blind trial versus placebo, patients with PD already under treatment, 3 mg per day) is listed as “no significant deterioration” and the long-term memory defects (CBP+/− mutant mice) is listed as “abolished the long-term memory defects”.

For `CCCCOc1cc(CC2CNC(=O)N2)ccc1OC` (stereo not drawn) [Ro-20 1724], the uptake of dopamine [3] is given as “stimulate uptake of dopamine”.

— patent US20040175382A1, “Methods of using and compositions comprising selective cytokine inhibitory drugs for the treatment and management of disorders of the central nervous system” (priority 2003, published 2004)
